Assay results: paper PMC9088669 (Journal of Medical Virology, 2022)
Like-named read-outs stand apart in the source and are kept apart here.

Legend:
SARS‐CoV‐2/FFM1 [1] = experiment: microbe, parasite or virus in culture; details: Severe acute respiratory syndrome coronavirus 2, Caco-2, 48 h, read-out: EC50 visual CPE
SARS‐CoV‐2 [2] = details: previously found; cited from earlier work
SARS‐CoV‐2/FFM1 [3] = test system: SARS‐CoV‐2/FFM1
SARS‐CoV‐2 [4] = details: read-out: EC50 reported in previous studies (range); cited from earlier work

SMILES | EC50 (SARS‐CoV‐2/FFM1 [1]) | other results
Cc1c(O)cccc1C(=O)N[C@@H](CSc1ccccc1)[C@H](O)CN1C[C@H]2CCCC[C@H]2C[C@H]1C(=O)NC(C)(C)C [Nelfinavir] | 8.1 µM | 
CCC(C)n1ncn(-c2ccc(N3CCN(c4ccc(OCC5COC(Cn6cncn6)(c6ccc(Cl)cc6Cl)O5)cc4)CC3)cc2)c1=O (stereo not shown) [Itraconazole] | 1.6 µM | 
COc1cccc2c1C(=O)c1c(O)c3c(c(O)c1C2=O)C[C@@](O)(C(=O)CO)C[C@@H]3O[C@H]1C[C@H](N)[C@H](O)[C@H](C)O1 [Doxorubicin] | 12 µM | 
CCN(CC)CCCC(C)Nc1ccnc2cc(Cl)ccc12 (stereo not shown) [Chloroquine] |  | activity in SARS‐CoV‐2–infected Caco‐2 cells (SARS‐CoV‐2 [2]): inactive
CCN(CC)CCNC(=O)c1ccc(NS(C)(=O)=O)cc1 [Sematilide] | > 100 µM | antiviral activity in Caco‐2 cells (SARS‐CoV‐2/FFM1 [3]; Caco‐2 cells, SARS‐CoV‐2/FFM1): not active
O=C(NC1CN2CCC1CC2)c1cc(Cl)cc2c1OC1CCCCC21 (stereo not shown) [RG‐12915] |  | EC50 (SARS‐CoV‐2/FFM1 [3]; read-out: EC50 visual CPE): 12 µM
CCN(CCO)CCCC(C)Nc1ccnc2cc(Cl)ccc12 (stereo not shown) [Hydroxychloroquine] |  | activity in SARS‐CoV‐2–infected Caco‐2 cells (SARS‐CoV‐2 [2]): inactive
CCC(CC)COC(=O)[C@H](C)N[P@](=O)(OC[C@H]1O[C@@](C#N)(c2ccc3c(N)ncnn23)[C@H](O)[C@@H]1O)Oc1ccccc1 [Remdesivir] | 1.3 µM | EC50 (SARS‐CoV‐2 [4]): 0.77 to 7.28 µM
